Data on 21 compounds can be found in patent publication US9150575B2, “Piperidinylpyrazolopyridine derivative” (Daiichi Sankyo Company, Limited, priority 2012, dated 2015).

pEC50: −log10 of the molar value. Structures can show the parent of a compound that is named as a salt.

The test system of assay [1] is cynomolgus monkey. The assay is described as follows: Drug Efficacy Test in Cynomolgus Monkeys. The conditions noted are these: oral, single dose of 10 mg/kg, compared with before administration, from AUC before administration and 24 hours after administration. In kind it is in vivo. On the procedure: Each test drug was dissolved in a propylene glycol (Sigma-Aldrich Corp.)-Tween 80 (Sigma-Aldrich Corp.) mixed solution [4/1 (v/v)] or a 0.5% (w/v) methylcellulose aqueous solution, and the solution was orally administered to a cynomolgus monkey for 1 or 7 days. At 1 or 7 day of administration period, blood was collected before administration and after administration, and plasma was obtained. The content of cholesterol in the plasma was measured using a commercially available assay kit (Cholesterol-E Wako, Wako Pure Chemical Industries, Ltd.). The lipoprotein profile was analyzed by HPLC (column: LipopropakXL, manufactured by Tosoh Corp.). The contents of HDL cholesterol and non-HDL cholesterol were calculated according to the following calculation expression: Content of HDL cholesterol=Content of cholesterol in the plasma×(Peak area of HDL cholesterol/Total sum of peaks) Content of non-HDL cholesterol=Content of cholesterol in the plasma×(Peak area of non-HDL cholesterol/Total sum of peaks)
The rate (%) of increase in HDL level after the administration of a single dose of 10 mg/kg compared with before administration was determined from AUC before administration and 24 hours after administration.

The target of assay [2] is T1, LCAT (Homo sapiens, UniProt P04180).
T1 construct: The obtained fraction was dialyzed against phosphate-buffered saline (pH 7.4) and used as an enzyme source and an acceptor for LCAT; from tissue; host or cells: HDL3 fraction (1.125<specific gravity<1.210 g/mL) of plasma from a healthy person
T1 sequence (P04180 25-440): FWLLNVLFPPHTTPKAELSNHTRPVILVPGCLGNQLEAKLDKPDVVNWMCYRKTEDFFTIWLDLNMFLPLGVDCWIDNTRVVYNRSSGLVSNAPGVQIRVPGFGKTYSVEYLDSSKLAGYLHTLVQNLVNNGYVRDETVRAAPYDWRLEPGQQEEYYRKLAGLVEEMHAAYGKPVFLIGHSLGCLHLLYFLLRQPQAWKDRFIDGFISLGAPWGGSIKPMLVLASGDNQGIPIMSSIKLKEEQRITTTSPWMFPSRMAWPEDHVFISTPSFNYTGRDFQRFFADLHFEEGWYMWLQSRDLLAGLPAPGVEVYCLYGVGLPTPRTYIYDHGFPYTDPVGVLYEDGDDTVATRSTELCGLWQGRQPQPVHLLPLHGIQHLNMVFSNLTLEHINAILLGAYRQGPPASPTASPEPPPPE
The assay is described as follows: LCAT Activity Measurement (In Vitro). The following applies: EC50 of LCAT activation; HDL3 fraction from plasma of a healthy person as enzyme source and acceptor; [14C]cholesterol; 37° C., approximately 16 hours. Type of assay: biochemical. A digest of the protocol:
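Human plasma HDL3 (1 mg/mL, PBS pH 7.4) served as enzyme and acceptor with [14C]cholesterol, 0.5 mM DTNB, 12.5 mM mercaptoethanol and 0.6% BSA; compounds in DMSO, incubated ~16 h at 37 °C. Cholesterol oleate radioactivity quantified after extraction and TLC; EC50 of activation fitted relative to no-drug control.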

By pEC50 is commonly meant −log10 of the EC50, conventionally taken in molar units. As for `O=C1CC(O)(C(F)(F)F)c2c(C3CCN(c4cccc(C(F)(F)F)n4)CC3)n[nH]c2N1` (centres unmarked) [Example 7, 4-Hydroxy-4-(trifluoromethyl)-3-{1-[6-(trifluoromethyl)pyridin-2-yl]piperidin-4-yl}-1,4,5,7-tetrahydro-6H-pyrazolo[3,4-b]pyridin-6-one], the “Rate of increase in HDL level after administration of single dose” value (“Rate of increase in HDL level” below) in assay [1] is on record as 334%. For the same compound, in assay [2], the pEC50 was 7.32.

As to `O=C1CC(O)(C(F)(F)F)c2c(C3CCN(c4ccc(Cl)cn4)CC3)n[nH]c2N1` (single isomer, unassigned; (-)) [Compound 50-1, (−)-3-[1-(5-Chloropyridin-2-yl)piperidin-4-yl]-4-hydroxy-4-(trifluoromethyl)-1,4,5,7-tetrahydro-6H-pyrazolo[3,4-b]pyridin-6-one], the “Rate of increase in HDL level” value in assay [1] is reported as 433%. For the same compound, the pEC50 in assay [2] was 7.35.

On to `O=C1CC(O)(C(F)(F)F)c2c(C3CCN(c4ccc(C(F)(F)F)cn4)CC3)n[nH]c2N1` (centres unmarked) [Example 8, 4-Hydroxy-4-(trifluoromethyl)-3-{1-[5-(trifluoromethyl)pyridin-2-yl]piperidin-4-yl}-1,4,5,7-tetrahydro-6H-pyrazolo[3,4-b]pyridin-6-one], for which the “Rate of increase in HDL level” value in assay [1] turned out to be 531%. The compound also gave a pEC50 in assay [2] of 7.68.

Turning to `N#Cc1cccnc1N1CCC(c2n[nH]c3c2C(O)(C(F)(F)F)CC(=O)N3)CC1` (centres unmarked) [Example 100, 2-{4-[4-Hydroxy-6-oxo-4-(trifluoromethyl)-4,5,6,7-tetrahydro-1H-pyrazolo[3,4-b]pyridin-3-yl]piperidin-1-yl}pyridine-3-carbonitrile], the pEC50 in assay [2] was 5.81.

As for `O=C1CC(O)(C(F)(F)F)c2c(C3CCN(c4cc(I)c(C(F)(F)F)cn4)CC3)n[nH]c2N1` (centres unmarked) [Example 102, 4-Hydroxy-3-{1-[4-iodo-5-(trifluoromethyl)pyridin-2-yl]piperidin-4-yl}-4-(trifluoromethyl)-1,4,5,7-tetrahydro-6H-pyrazolo[3,4-b]pyridin-6-one], in assay [2], the pEC50 was 7.68.

As to `N#Cc1cc(N2CCC(c3n[nH]c4c3C(O)(C(F)(F)F)CC(=O)N4)CC2)ccc1OC(F)F` (centres unmarked) [Example 60, 2-(Difluoromethoxy)-5-{4-[4-hydroxy-6-oxo-4-(trifluoromethyl)-4,5,6,7-tetrahydro-1H-pyrazolo[3,4-b]pyridin-3-yl]piperidin-1-yl}benzonitrile], the pEC50 in assay [2] is 7.68.

On to `O=C1CC(O)(C(F)(F)F)c2c(C3CCN(c4nccs4)CC3)n[nH]c2N1` (centres unmarked) [Example 29, 4-Hydroxy-3-[1-(1,3-thiazol-2-yl)piperidin-4-yl]-4-(trifluoromethyl)-1,4,5,7-tetrahydro-6H-pyrazolo[3,4-b]pyridin-6-one], for which the pEC50 in assay [2] is 5.73.

Consider `O=C1CC(O)(C(F)(F)F)c2c(C3CCN(c4ncc(C(F)(F)F)cc4Cl)CC3)n[nH]c2N1` (centres unmarked) [Example 10, 3-{1-[3-Chloro-5-(trifluoromethyl)pyridin-2-yl]piperidin-4-yl}-4-hydroxy-4-(trifluoromethyl)-1,4,5,7-tetrahydro-6H-pyrazolo[3,4-b]pyridin-6-one], for which, in assay [1], the “Rate of increase in HDL level” value was found to be 526%. The compound also gave a pEC50 in assay [2] of 6.68.

In assay [2], `COc1ccc(N2CCC(c3n[nH]c4c3C(O)(C(F)(F)F)CC(=O)N4)CC2)nc1` (centres unmarked) [Example 36, 4-Hydroxy-3-[1-(5-methoxypyridin-2-yl)piperidin-4-yl]-4-(trifluoromethyl)-1,4,5,7-tetrahydro-6H-pyrazolo[3,4-b]pyridin-6-one] had a pEC50 of 6.38.

`CC(C)Oc1ccc(N2CCC(c3n[nH]c4c3C(O)(C(F)(F)F)CC(=O)N4)CC2)nn1` (centres unmarked) [Example 18, 4-Hydroxy-3-{1-[6-(propan-2-yloxy)pyridazin-3-yl]piperidin-4-yl}-4-(trifluoromethyl)-1,4,5,7-tetrahydro-6H-pyrazolo[3,4-b]pyridin-6-one hydrochloride] had a pEC50 in assay [2] of 7.00.

In assay [2], `COc1ccnc(N2CCC(c3n[nH]c4c3C(O)(C(F)(F)F)CC(=O)N4)CC2)c1` (centres unmarked) [Example 39, 4-Hydroxy-3-[1-(4-methoxypyridin-2-yl)piperidin-4-yl]-4-(trifluoromethyl)-1,4,5,7-tetrahydro-6H-pyrazolo[3,4-b]pyridin-6-one] gave a pEC50 of 6.48.

With `O=C1CC(O)(C(F)(F)F)c2c(C3CCN(c4nccc(C(F)(F)F)n4)CC3)n[nH]c2N1` (centres unmarked) [Example 80, 4-Hydroxy-4-(trifluoromethyl)-3-{1-[4-(trifluoromethyl)pyrimidin-2-yl]piperidin-4-yl}-1,4,5,7-tetrahydro-6H-pyrazolo[3,4-b]pyridin-6-one], the pEC50 in assay [2] is 6.42.

In the case of `O=C1CC(O)(C(F)(F)F)c2c(C3CCN(c4ccc(C(F)(F)F)nn4)CC3)n[nH]c2N1` (centres unmarked) [Example 43, 4-Hydroxy-4-(trifluoromethyl)-3-{1-[6-(trifluoromethyl)pyridazin-3-yl]piperidin-4-yl}-1,4,5,7-tetrahydro-6H-pyrazolo[3,4-b]pyridin-6-one], the negative logarithm of the EC50 (pEC50) in assay [2] is 7.25.

In turn, `CC(C)Oc1ccc(N2CCC(c3n[nH]c4c3C(O)(C(F)(F)F)CC(=O)N4)CC2)nn1` (centres unmarked) [Example 17, 4-Hydroxy-3-{1-[6-(propan-2-yloxy)pyridazin-3-yl]piperidin-4-yl}-4-(trifluoromethyl)-1,4,5,7-tetrahydro-6H-pyrazolo[3,4-b]pyridin-6-one] gave a pEC50 in assay [2] of 7.19.

In assay [2], `O=C1CC(O)(C(F)(F)F)c2c(C3CCN(c4nc5ccccc5o4)CC3)n[nH]c2N1` (centres unmarked) [Example 24, 3-[1-(1,3-Benzoxazol-2-yl)piperidin-4-yl]-4-hydroxy-4-(trifluoromethyl)-1,4,5,7-tetrahydro-6H-pyrazolo[3,4-b]pyridin-6-one] showed a pEC50 of 6.82.

Consider `O=C1CC(O)(C(F)(F)F)c2c(C3CCN(c4ccc(OC(F)F)cc4)CC3)n[nH]c2N1` (single isomer, unassigned; (-)) [Compound 56-1, (−)-3-{1-[4-(Difluoromethoxy)phenyl]piperidin-4-yl}-4-hydroxy-4-(trifluoromethyl)-1,4,5,7-tetrahydro-6H-pyrazolo[3,4-b]pyridin-6-one], for which the “Rate of increase in HDL level” value in assay [1] was found to be 644%. Moreover, in assay [2], the pEC50 is 7.35.

`CC(C)(C)c1ncc(N2CCC(c3n[nH]c4c3C(O)(C(F)(F)F)CC(=O)N4)CC2)cn1` (centres unmarked) [Example 72, 3-[1-(2-tert-Butylpyrimidin-5-yl)piperidin-4-yl]-4-hydroxy-4-(trifluoromethyl)-1,4,5,7-tetrahydro-6H-pyrazolo[3,4-b]pyridin-6-one] gave a negative-log EC50 (pEC50) in assay [2] of 7.64.

In assay [2], `N#Cc1nc(N2CCC(c3n[nH]c4c3C(O)(C(F)(F)F)CC(=O)N4)CC2)ccc1C(F)(F)F` (centres unmarked) [Example 94, 6-{4-[4-Hydroxy-6-oxo-4-(trifluoromethyl)-4,5,6,7-tetrahydro-1H-pyrazolo[3,4-b]pyridin-3-yl]piperidin-1-yl}-3-(trifluoro)pyridine-2-carbonitrile] had a pEC50 of 7.82.

On to `O=C1CC(O)(C(F)(F)F)c2c(C3CCN(c4ccc(C(F)(F)F)nc4)CC3)n[nH]c2N1` (centres unmarked) [Example 41, 4-Hydroxy-4-(trifluoromethyl)-3-{1-[6-(trifluoromethyl)pyridin-3-yl]piperidin-4-yl}-1,4,5,7-tetrahydro-6H-pyrazolo[3,4-b]pyridin-6-one], for which the pEC50 in assay [2] is 7.59.

In turn, `COc1ccc(N2CCC(c3n[nH]c4c3C(O)(C(F)(F)F)CC(=O)N4)CC2)cn1` (centres unmarked) [Example 32, 4-Hydroxy-3-[1-(6-methoxypyridin-3-yl)piperidin-4-yl]-4-(trifluoromethyl)-1,4,5,7-tetrahydro-6H-pyrazolo[3,4-b]pyridin-6-one] gave a pEC50 in assay [2] of 6.52.

In assay [2], `O=C1CC(O)(C(F)(F)F)c2c(C3CCN(c4cnc(C(F)(F)F)cn4)CC3)n[nH]c2N1` (centres unmarked) [Example 46, 4-Hydroxy-4-(trifluoromethyl)-3-{1-[5-(trifluoromethyl)pyrazin-2-yl]piperidin-4-yl}-1,4,5,7-tetrahydro-6H-pyrazolo[3,4-b]pyridin-6-one] gave a pEC50 of 7.92.
